Measured values reported in ChEMBL document CHEMBL5252622, “Discovery of a brain-sparing GIRK1/4 inhibitor for pharmacological cardioversion of atrial fibrillation” (Bioorg Med Chem Lett, 2023).
In brackets after ≈: the same amount, converted by molar mass.

Assays:
[1] = target: Voltage-gated inwardly rectifying potassium channel KCNH2 (Homo sapiens, UniProt Q12809); test: Inhibition of recombinant hERG in the presence of dofetilide by competitive binding assay; assay type: toxicity
Kir3.1/Kir3.4 = target: T1, Kir3.1/Kir3.4 (Homo sapiens, UniProt P48544+P48549); test: Inhibition of recombinant human GIRK1/4 channel; assay type: protein-complex assay
T1 sequence (P48549 whole entry): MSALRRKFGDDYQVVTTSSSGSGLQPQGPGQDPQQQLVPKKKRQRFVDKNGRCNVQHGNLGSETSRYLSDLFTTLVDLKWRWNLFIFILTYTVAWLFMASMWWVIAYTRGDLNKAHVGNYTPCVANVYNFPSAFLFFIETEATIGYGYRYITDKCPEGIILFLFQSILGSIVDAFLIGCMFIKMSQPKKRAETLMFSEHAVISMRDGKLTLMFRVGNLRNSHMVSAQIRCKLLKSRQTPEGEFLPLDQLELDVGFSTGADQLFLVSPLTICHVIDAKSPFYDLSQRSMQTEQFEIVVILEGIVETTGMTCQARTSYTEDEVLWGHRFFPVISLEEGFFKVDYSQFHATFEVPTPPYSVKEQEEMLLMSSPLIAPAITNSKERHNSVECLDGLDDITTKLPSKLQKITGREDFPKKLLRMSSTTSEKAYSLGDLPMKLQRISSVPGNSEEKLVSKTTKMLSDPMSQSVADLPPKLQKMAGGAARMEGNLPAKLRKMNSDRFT
T1 sequence (P48544 whole entry): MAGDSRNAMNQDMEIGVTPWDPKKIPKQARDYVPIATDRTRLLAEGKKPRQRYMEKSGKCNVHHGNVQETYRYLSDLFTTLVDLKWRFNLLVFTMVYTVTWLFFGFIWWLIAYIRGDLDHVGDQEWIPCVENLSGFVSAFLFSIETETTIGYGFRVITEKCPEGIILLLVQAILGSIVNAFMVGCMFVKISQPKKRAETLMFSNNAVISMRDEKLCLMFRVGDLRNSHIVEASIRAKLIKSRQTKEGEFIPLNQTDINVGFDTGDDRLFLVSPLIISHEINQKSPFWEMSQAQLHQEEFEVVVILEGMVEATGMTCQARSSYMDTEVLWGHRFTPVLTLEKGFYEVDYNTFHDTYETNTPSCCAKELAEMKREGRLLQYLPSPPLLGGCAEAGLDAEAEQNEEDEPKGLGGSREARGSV

[2] = target: Sodium channel protein type 5 subunit alpha (Homo sapiens, UniProt Q14524); test: Inhibition of recombinant human Nav1.5; assay type: toxicity
MDCK = test: Substrate activity at p-glycoprotein in MDCK cells overexpressing MDR1 assessed as efflux ratio of permeability from basolateral to apical side over apical to basolateral side; assay type: cell-based; conditions: Canis lupus familiaris
[3] = target: T2, Potassium voltage-gated channel subfamily KQT member 1 (Homo sapiens, UniProt P51787); test: Inhibition of recombinant human KCNQ1; assay type: toxicity
T2 sequence (P51787 whole entry): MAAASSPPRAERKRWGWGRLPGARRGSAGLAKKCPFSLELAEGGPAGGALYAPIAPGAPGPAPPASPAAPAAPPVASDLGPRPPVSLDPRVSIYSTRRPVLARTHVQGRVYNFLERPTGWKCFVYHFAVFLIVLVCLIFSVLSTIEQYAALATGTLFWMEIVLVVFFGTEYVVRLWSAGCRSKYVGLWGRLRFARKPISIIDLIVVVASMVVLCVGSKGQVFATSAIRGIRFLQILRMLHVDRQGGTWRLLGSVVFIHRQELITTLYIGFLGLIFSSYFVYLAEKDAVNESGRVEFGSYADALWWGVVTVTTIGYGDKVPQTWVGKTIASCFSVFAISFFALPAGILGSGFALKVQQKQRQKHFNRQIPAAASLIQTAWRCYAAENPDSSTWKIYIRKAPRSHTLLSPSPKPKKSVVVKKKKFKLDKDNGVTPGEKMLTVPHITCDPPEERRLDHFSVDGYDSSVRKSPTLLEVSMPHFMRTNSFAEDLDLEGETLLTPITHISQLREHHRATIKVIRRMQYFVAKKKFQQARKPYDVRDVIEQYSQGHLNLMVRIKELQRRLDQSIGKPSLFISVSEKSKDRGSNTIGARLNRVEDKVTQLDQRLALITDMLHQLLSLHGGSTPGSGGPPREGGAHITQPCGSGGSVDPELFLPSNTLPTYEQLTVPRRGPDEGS

[4] = Apparent permeability across apical to basolateral side in MDCK cells; assay type: ADME, cell-based, Canis lupus familiaris; conditions: dog
[5] = target: Voltage-dependent L-type calcium channel subunit alpha-1C (Homo sapiens, UniProt Q13936); test: Inhibition of recombinant human Cav1.2; assay type: toxicity
[6] = Aqueous solubility of the compound at pH 6.8; assay type: physicochemical
[7] = Intrinsic clearance in human liver microsomes; assay type: ADME, Microsome; conditions: read-out: CLH
[8] = Toxicity in iv dosed rat assessed as neurobehavioral disturbances by measuring increase in motor activity; assay type: organism-based; conditions: in vivo
[9] = Intrinsic clearance in rat liver microsomes; assay type: ADME, Microsome; conditions: read-out: CLH
Kir3.1/Kir3.2 = target: T3, Kir3.1/Kir3.2 (Homo sapiens, UniProt P48051+P48549); test: Inhibition of recombinant human GIRK1/2 channel; assay type: protein-complex assay
T3 sequence (P48549 whole entry): T1 sequence (P48549 whole entry)
T3 sequence (P48051 whole entry): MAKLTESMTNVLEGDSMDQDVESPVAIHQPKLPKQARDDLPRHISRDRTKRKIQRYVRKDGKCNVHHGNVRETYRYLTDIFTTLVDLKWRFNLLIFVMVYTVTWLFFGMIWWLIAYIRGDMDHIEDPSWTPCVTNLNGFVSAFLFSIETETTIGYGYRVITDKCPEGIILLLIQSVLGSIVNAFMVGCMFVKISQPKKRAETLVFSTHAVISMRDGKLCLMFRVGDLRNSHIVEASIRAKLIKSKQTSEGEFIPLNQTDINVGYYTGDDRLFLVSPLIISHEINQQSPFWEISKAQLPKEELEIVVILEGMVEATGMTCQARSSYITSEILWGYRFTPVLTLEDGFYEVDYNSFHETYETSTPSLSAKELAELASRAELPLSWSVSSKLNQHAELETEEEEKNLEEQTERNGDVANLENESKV

[10] = Toxicity in iv dosed rat assessed as neurobehavioral disturbances by measuring convulsions; assay type: organism-based; conditions: in vivo

Sequence of Sodium channel protein type 5 subunit alpha (Q14524 whole entry): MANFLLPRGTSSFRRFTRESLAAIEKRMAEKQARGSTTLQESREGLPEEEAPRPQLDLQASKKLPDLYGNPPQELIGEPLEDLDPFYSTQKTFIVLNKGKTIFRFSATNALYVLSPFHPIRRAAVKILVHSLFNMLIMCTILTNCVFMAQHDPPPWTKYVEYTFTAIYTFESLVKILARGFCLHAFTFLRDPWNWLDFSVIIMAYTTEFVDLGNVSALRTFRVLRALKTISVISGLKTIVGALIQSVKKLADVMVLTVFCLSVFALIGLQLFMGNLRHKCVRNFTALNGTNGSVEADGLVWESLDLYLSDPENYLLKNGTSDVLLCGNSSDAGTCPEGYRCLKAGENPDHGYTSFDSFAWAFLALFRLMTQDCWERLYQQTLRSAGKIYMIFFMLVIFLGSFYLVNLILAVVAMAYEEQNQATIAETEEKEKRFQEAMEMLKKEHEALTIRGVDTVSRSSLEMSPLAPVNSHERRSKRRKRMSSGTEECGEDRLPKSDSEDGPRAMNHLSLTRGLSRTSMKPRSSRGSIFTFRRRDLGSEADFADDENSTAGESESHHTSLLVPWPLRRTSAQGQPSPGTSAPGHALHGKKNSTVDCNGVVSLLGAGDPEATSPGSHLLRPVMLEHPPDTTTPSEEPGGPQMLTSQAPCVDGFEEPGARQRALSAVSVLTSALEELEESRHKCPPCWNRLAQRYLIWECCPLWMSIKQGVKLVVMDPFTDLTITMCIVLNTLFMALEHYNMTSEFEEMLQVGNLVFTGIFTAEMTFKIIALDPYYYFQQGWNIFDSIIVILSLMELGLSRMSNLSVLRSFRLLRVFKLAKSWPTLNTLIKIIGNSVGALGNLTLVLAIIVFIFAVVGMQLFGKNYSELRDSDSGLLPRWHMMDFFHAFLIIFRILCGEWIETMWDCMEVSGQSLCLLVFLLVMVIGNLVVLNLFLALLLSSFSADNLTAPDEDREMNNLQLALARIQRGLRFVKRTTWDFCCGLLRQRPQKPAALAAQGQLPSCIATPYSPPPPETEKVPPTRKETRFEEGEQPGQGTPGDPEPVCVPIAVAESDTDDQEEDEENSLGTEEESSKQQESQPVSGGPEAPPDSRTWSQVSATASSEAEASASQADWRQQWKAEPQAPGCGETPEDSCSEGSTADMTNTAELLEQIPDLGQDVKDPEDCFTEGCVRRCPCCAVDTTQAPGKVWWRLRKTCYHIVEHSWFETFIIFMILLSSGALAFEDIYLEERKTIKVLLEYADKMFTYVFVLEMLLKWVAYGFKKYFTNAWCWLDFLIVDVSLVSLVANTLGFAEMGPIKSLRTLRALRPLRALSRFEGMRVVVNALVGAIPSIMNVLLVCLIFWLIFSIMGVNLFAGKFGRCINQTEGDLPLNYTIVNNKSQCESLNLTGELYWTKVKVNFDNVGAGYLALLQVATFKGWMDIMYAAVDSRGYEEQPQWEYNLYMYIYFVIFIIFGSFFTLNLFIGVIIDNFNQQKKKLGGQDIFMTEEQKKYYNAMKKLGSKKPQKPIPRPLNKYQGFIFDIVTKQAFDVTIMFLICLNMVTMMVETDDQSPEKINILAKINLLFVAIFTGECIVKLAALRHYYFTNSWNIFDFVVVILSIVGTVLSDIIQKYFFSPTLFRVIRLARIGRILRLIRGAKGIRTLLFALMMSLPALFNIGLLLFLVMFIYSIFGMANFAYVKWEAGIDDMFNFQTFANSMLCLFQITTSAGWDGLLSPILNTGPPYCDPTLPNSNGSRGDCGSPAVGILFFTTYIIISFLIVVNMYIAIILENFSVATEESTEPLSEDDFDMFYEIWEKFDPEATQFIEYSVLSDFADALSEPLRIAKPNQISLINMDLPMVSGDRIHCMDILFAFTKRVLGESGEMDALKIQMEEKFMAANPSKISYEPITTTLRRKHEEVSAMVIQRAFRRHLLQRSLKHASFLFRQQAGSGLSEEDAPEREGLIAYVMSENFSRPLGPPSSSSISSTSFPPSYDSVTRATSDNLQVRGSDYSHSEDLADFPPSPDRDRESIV
Sequence of Voltage-dependent L-type calcium channel subunit alpha-1C (Q13936 whole entry): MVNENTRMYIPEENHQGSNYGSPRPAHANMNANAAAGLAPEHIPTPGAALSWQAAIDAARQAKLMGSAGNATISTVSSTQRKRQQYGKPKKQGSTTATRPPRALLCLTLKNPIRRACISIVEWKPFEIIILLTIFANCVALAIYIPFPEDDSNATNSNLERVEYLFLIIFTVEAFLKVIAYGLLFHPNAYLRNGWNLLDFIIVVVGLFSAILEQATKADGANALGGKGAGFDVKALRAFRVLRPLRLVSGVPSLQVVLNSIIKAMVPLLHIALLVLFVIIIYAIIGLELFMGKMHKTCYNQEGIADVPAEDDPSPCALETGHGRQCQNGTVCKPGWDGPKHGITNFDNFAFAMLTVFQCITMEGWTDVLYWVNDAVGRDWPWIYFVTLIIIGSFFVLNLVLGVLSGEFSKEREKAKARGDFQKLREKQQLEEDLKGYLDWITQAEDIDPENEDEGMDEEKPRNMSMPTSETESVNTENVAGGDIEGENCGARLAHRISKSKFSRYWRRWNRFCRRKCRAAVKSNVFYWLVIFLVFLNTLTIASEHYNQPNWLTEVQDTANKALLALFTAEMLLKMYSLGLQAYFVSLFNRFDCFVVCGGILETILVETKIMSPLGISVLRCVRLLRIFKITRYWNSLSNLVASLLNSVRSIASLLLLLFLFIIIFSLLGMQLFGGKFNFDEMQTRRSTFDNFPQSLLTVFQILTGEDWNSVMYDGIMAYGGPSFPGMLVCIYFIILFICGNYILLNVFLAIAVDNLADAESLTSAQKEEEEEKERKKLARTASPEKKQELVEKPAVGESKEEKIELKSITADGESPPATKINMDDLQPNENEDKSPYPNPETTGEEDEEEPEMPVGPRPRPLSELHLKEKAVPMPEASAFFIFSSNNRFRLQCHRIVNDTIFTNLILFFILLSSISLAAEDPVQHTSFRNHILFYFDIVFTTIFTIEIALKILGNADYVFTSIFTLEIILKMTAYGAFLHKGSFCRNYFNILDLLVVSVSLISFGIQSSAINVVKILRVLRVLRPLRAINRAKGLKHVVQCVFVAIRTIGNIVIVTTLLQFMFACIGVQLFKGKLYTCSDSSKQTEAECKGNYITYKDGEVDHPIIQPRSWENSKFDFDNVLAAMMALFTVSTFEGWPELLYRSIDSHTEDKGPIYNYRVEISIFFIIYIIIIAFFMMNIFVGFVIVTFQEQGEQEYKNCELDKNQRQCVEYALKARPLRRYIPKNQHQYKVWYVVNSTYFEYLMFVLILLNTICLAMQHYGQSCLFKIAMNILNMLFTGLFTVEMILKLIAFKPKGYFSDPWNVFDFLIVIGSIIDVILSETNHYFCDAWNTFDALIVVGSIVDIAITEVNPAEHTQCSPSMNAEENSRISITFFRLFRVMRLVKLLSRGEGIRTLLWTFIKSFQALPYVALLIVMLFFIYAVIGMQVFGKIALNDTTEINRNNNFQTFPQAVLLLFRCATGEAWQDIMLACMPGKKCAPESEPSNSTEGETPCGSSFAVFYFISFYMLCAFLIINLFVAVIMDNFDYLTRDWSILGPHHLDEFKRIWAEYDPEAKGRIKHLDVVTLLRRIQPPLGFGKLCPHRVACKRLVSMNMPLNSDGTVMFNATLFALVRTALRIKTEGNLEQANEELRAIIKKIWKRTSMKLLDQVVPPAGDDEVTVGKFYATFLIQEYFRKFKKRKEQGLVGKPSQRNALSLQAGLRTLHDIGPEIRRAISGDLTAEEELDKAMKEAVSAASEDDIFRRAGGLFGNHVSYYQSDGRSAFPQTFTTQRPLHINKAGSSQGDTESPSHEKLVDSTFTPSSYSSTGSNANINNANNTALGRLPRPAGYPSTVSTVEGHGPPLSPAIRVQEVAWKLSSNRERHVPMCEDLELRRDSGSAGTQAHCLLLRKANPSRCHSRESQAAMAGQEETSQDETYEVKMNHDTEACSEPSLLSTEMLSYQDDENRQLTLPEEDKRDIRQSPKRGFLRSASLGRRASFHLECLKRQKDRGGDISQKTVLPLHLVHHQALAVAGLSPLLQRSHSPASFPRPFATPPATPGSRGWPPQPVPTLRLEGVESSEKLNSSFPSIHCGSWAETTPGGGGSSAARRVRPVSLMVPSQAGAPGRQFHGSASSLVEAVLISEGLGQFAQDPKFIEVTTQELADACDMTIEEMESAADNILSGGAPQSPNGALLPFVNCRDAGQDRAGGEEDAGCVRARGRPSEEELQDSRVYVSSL

Row | SMILES | IC50 [1] | IC50 (Kir3.1/Kir3.4) | IC50 [2] | Ratio (MDCK) | IC50 [3] | Papp A→B [4] | IC50 [5] | solubility [6] | microsomal CLint [7] | Activity [8] | microsomal CLint [9] | IC50 (Kir3.1/Kir3.2) | Activity [10]
1 | O=c1cc(CO)n(-c2c(Cl)cccc2Cl)c2c(Cl)cnc(OC[C@@H](O)CO)c12 | > 50 µM | 150 nM | > 50 µM | 10.6 | > 50 µM | 5 ×10⁻⁶ cm/s | > 50 µM |  |  |  |  |  | 
2 | O=c1cc(CO)n(-c2c(Cl)cccc2Cl)c2c(Cl)cnc(OC(CO)CO)c12 |  | 250 nM |  | 18.3 |  | 6.9 ×10⁻⁶ cm/s |  | 300 µM (≈ 134 µg/mL) |  |  |  |  | 
3 | Cc1cc(=O)c2c(OCC(O)CO)nc(N3CCOCC3)cc2n1-c1c(Cl)cccc1Cl (stereo unspecified) |  | > 5000 nM |  |  |  | 13.1 ×10⁻⁶ cm/s |  | 680 µM (≈ 327 µg/mL) |  |  |  |  | 
4 | COc1ncc(Cl)c2c1c(=O)cc(CO)n2-c1c(Cl)cccc1Cl |  | 27 nM |  | 2.7 |  | 22.6 ×10⁻⁶ cm/s |  | 89 µM (≈ 34.3 µg/mL) |  |  |  |  | 
5 | CS(=O)(=O)CCCOc1ncc(Cl)c2c1c(=O)cc(CO)n2-c1c(Cl)cccc1Cl |  | 100 nM |  | 40.7 |  | 10.1 ×10⁻⁶ cm/s |  | 500 µM (≈ 246 µg/mL) |  |  |  |  | 
6 | Cc1cc(=O)c2c(F)cncc2n1-c1c(Cl)cc(C#N)cc1Cl | > 30 µM | 190 nM | > 50 µM | 1.8 | > 50 µM | 13.9 ×10⁻⁶ cm/s | > 50 µM | 52 µM (≈ 18.1 µg/mL) | 12 µL/min/mg | Toxic | 18 µL/min/mg | 200 nM | Toxic
7 | Cc1cc(=O)c2c(F)cncc2n1-c1c(Cl)cc(C#CCO)cc1Cl |  | 140 nM |  | 1.7 |  | 26.6 ×10⁻⁶ cm/s |  | 170 µM (≈ 64.1 µg/mL) |  |  |  |  | 
8 | Cc1cc(=O)c2c(OCC(O)CC(O)CO)ncc(Cl)c2n1-c1c(Cl)cccc1Cl (stereo unspecified) |  | 87 nM |  | 4.5 |  | 16.6 ×10⁻⁶ cm/s |  | 230 µM (≈ 109 µg/mL) |  |  |  |  | 
9 | Cc1cc(=O)c2c(OCCO)ncc(Cl)c2n1-c1c(Cl)cccc1Cl |  |  |  | 0.7 |  | 32.6 ×10⁻⁶ cm/s |  | 430 µM (≈ 172 µg/mL) |  |  |  |  | 
